Source: patent US7109193B2, “Tricyclic diazepines tocolytic oxytocin receptor antagonists” (Wyeth, priority 2001, dated 2006)

Target: T1, human vasopressin V1a receptor subtype (Homo sapiens, UniProt P37288)
T1 construct: host or cells: CHO cells (pZeoSV vector for the Thibonnier line)
Experiment: Vasopressin binding in Chinese Hamster Ovary cell membranes expressing human vasopressin V1a subtype receptors
Conditions: 100 nM, CHO cell membranes, [3H]Manning ligand, values without parentheses
Method in brief: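 Displacement of [3H]Manning ligand (8 nM working solution) from human V1a receptors in CHO cell membranes, 25–50 μg protein per well. Incubation ran 60 min at room temperature in 50 mM Tris-HCl pH 7.4 with protease inhibitors, followed by filtration and scintillation counting. Results are given as IC50 or percent inhibition.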

T1 sequence (P37288 whole entry): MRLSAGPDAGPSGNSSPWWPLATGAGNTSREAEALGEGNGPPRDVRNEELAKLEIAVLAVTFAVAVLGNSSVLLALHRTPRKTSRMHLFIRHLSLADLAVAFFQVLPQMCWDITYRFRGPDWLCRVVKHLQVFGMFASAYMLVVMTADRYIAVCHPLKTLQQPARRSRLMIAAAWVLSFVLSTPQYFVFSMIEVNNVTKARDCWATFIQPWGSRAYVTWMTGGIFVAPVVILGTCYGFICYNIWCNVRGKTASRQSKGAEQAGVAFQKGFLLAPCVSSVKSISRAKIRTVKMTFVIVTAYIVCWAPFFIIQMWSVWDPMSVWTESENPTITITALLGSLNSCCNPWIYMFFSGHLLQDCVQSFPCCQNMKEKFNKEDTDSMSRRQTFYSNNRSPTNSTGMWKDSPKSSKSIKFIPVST

Row | inhibition at 0.1 µM [%] | SMILES
1 | 5 | O=C(c1ccc2n1Cc1ccccc1N(C(=O)c1ccc(-c3cccc4ccccc34)cc1Cl)C2)N1CCN(CCN2CCOCC2)CC1 [Example 215, {10-[2-Chloro-4-(1-naphthyl)benzoyl]-10,11-dihydro-5H-pyrrolo[2,1-c][1,4]benzodiazepin-3-yl}{4-[2-(4-morpholinyl)ethyl]-1-piperazinyl}methanone]
2 | 39 | COc1cc(C(=O)N2Cc3ccc(C(=O)N4CCN(CCN5CCOCC5)CC4)n3Cc3ccccc32)ccc1-c1ccccc1C [Example 210, {10-[(2-Methoxy-2′-methyl[1,1′-biphenyl]-4-yl)carbonyl]-10,11-dihydro-5H-pyrrolo[2,1-c][1,4]benzodiazepin-3-yl}{4-[2-(4-morpholinyl)ethyl]-1-piperazinyl}methanone]
3 | 79 | Cc1ccccc1-c1ccc(C(=O)N2Cc3ccc(C(=O)N(C)C4CCN(C)CC4)n3Cc3ccccc32)cc1 [Example 178, N-Methyl-10-[(2′-methyl[1,1′-biphenyl]-4-yl)carbonyl]-N-(1-methyl-4-piperidinyl)-10,11-dihydro-5H-pyrrolo[2,1-c][1,4]benzodiazepine-3-carboxamide]
4 | -8 | COc1cc(-c2ccccc2C(F)(F)F)c(Cl)cc1C(=O)N1Cc2ccc(C(=O)O)n2Cc2ccccc21 [Example 15, 10-{[6-Chloro-3-methoxy-2′-trifluoromethyl-[1,1′-biphenyl]-4-yl]carbonyl}-10,11-dihydro-5H-pyrrolo[2,1-c][1,4]benzodiazepine-3-carboxylic acid]
5 | 2 | COc1cccc(-c2cc(OC)c(C(=O)N3Cc4ccc(C(=O)N5CCN(CCN(C)C)CC5)n4Cc4ccccc43)cc2Cl)c1 [Example 202, {10-[(6-Chloro-3,3′-dimethoxy[1,1′-biphenyl]-4-yl)carbonyl]-10,11-dihydro-5H-pyrrolo[2,1-c][1,4]benzodiazepin-3-yl}{4-[2-(dimethylamino)ethyl]-1-piperazinyl}methanone]
6 | -10 | COc1cc2c(cc1OC)N(C(=O)c1ccc(-c3ccccc3C(F)(F)F)c(C)c1)Cc1cccn1C2 [Example 12, 7,8-Dimethoxy-[10,11-dihydro-5H-pyrrolo[2,1-c][1,4]benzodiazepin-10-yl][2-methyl-2′-(trifluoromethyl)[1,1′-biphenyl]-4-yl]methanone]
7 | 0 | Cc1cc(C(=O)N2Cc3ccc(C(=O)N(C)C4CCN(C)CC4)n3Cc3ccccc32)ccc1-c1ccccc1C(F)(F)F [Example 184, N-Methyl-N-(1-methyl-4-piperidinyl)-10-{[2-methyl-2′-(trifluoromethyl)[1,1′-biphenyl]-4-yl]carbonyl}-10,11-dihydro-5H-pyrrolo[2,1-c][1,4]benzodiazepine-3-carboxamide]
8 | 43 | COc1cccc(-c2ccc(C(=O)N3Cc4ccc(C(=O)NCCC5CCCN5C)n4Cc4ccccc43)cc2OC)c1 (centres unmarked) [Example 172, 10-[(2,3′-Dimethoxy[1,1′-biphenyl]-4-yl)carbonyl]-N-[2-(1-methyl-2-pyrrolidinyl)ethyl]-10,11-dihydro-5H-pyrrolo[2,1-c][1,4]benzodiazepine-3-carboxamide]
9 | 41 | COc1cccc(-c2cc(OC)c(C(=O)N3Cc4ccc(C(=O)N(C)C5CCN(C)C5)n4Cc4ccccc43)cc2Cl)c1 (centres unmarked) [Example 191, 10-[(6-Chloro-3,3′-dimethoxy[1,1′-biphenyl]-4-yl)carbonyl]-N-methyl-N-(1-methyl-3-pyrrolidinyl)-10,11-dihydro-5H-pyrrolo[2,1-c][1,4]benzodiazepine-3-carboxamide]
10 | 41 | COc1ccccc1-c1ccc(C(=O)N2Cc3ccc(C(=O)N(C)C4CCN(C)C4)n3Cc3ccccc32)cc1OC (centres unmarked) [Example 193, 10-[(2,2′-Dimethoxy[1,1′-biphenyl]-4-yl)carbonyl]-N-methyl-N-(1-methyl-3-pyrrolidinyl)-10,11-dihydro-5H-pyrrolo[2,1-c][1,4]benzodiazepine-3-carboxamide]
11 | 7 | C=CCN1CCN(C(=O)c2ccc3n2Cc2ccccc2N(C(=O)c2ccc(-c4cccc5ccccc45)c(OC)c2)C3)CC1 [Example 231, (4-Allyl-1-piperazinyl){10-[3-methoxy-4-(1-naphthyl)benzoyl]-10,11-dihydro-5H -pyrrolo[2,1-c][1,4]benzodiazepin-3-yl}methanone]
12 | 26 | COc1ccccc1-c1ccc(C(=O)N2Cc3ccc(C(=O)N(C)C4CCN(C)CC4)n3Cc3ccccc32)cc1OC [Example 183, 10-[(2,2′-Dimethoxy[1,1′-biphenyl]-4-yl)carbonyl]-N-methyl-N-(1-methyl-4-piperidinyl)-10,11-dihydro-5H-pyrrolo[2,1-c][1,4]benzodiazepine-3-carboxamide]
13 | 6 | O=C(NCCN1CCCCC1)c1ccc2n1Cc1ccccc1N(C(=O)c1ccc(-c3cccc4ccccc34)cc1Cl)C2 [Example 160, 10-[2-Chloro-4-(1-naphthyl)benzoyl]-N-[2-(1-piperidinyl)ethyl]-10,11-dihydro-5H-pyrrolo[2,1-c][1,4]benzodiazepine-3-carboxamide]
14 | 3 | COc1cc(-c2ccccc2C)c(Cl)cc1C(=O)N1Cc2ccc(C(=O)N3CCN(C(C)C)CC3)n2Cc2ccccc21 [Example 238, {10-[(6-Chloro-3-methoxy-2′-methyl[1,1′-biphenyl]-4-yl)carbonyl]-10,11-dihydro-5H -pyrrolo[2,1-c][1,4]benzodiazepin-3-yl}(4-isopropyl-1-piperazinyl)methanone]
15 | 2 | C=CCN1CCN(C(=O)c2ccc3n2Cc2ccccc2N(C(=O)c2ccc(-c4ccccc4OC)c(OC)c2)C3)CC1 [Example 227, (4-Allyl-1-piperazinyl){10-[(2,2′-dimethoxy[1,1′-biphenyl]-4-yl)carbonyl]-10,11-dihydro-5H -pyrrolo[2,1-c][1,4]benzodiazepin-3-yl}methanone]
16 | 89 | Cc1ccccc1-c1ccc(C(=O)N2Cc3ccc(C(=O)N(C)C4CCN(C)C4)n3Cc3ccccc32)cc1 (centres unmarked) [Example 188, N-Methyl-10-[(2′-methyl[1,1′-biphenyl]-4-yl)carbonyl]-N-(1-methyl-3-pyrrolidinyl)-10,11-dihydro-5H-pyrrolo[2,1-c][1,4]benzodiazepine-3-carboxamide]
17 | 1 | Cc1cc(C(=O)N2Cc3ccc(C(=O)N4CCN(C(C)C)CC4)n3Cc3ccccc32)ccc1-c1ccccc1C(F)(F)F [Example 240, (4-Isopropyl-1-piperazinyl)(10-{[2-methyl-2′-(trifluoromethyl)[1,1′-biphenyl]-4-yl]carbonyl}-10,11-dihydro-5H-pyrrolo[2,1-c][1,4]benzodiazepin-3-yl)methanone]
18 | 15 | C=CCN1CCN(C(=O)c2ccc3n2Cc2ccccc2N(C(=O)c2ccc(-c4ccccc4OC)c(C)c2)C3)CC1 [Example 222, (4-Allyl-1-piperazinyl){10-[(2′-methoxy-2-methyl[1,1′-biphenyl]-4-yl)carbonyl]-10,11-dihydro-5H-pyrrolo[2,1-c][1,4]benzodiazepin-3-yl}methanone]
19 | 26 | COc1ccccc1-c1ccc(C(=O)N2Cc3ccc(C(=O)N4CCN(C(C)C)CC4)n3Cc3ccccc32)cc1 [Example 234, (4-Isopropyl-1-piperazinyl){10-[(2′-methoxy[1,1′-biphenyl]-4-yl)carbonyl]-10,11-dihydro-5H-pyrrolo[2,1-c][1,4]benzodiazepin-3-yl}methanone]
20 | 8 | C=CCN1CCN(C(=O)c2ccc3n2Cc2ccccc2N(C(=O)c2ccc(-c4cccc5ccccc45)cc2Cl)C3)CC1 [Example 229, (4-Allyl-1-piperazinyl){10-[2-chloro-4-(1-naphthyl)benzoyl]-10,11-dihydro-5H-pyrrolo[2,1-c][1,4]benzodiazepin-3-yl}methanone]
21 | 40 | COc1cc(-c2ccccc2C)c(Cl)cc1C(=O)N1Cc2ccc(C(=O)N(C)C3CCN(C)C3)n2Cc2ccccc21 (centres unmarked) [Example 190, 10-[(6-Chloro-3-methoxy-2′-methyl[1,1′-biphenyl]-4-yl)carbonyl]-N-methyl-N-(1-methyl-3-pyrrolidinyl)-10,11-dihydro-5H-pyrrolo[2,1-c][1,4]benzodiazepine-3-carboxamide]
22 | 44 | COc1cccc(-c2ccc(C(=O)N3Cc4ccc(C(=O)NCCN5CCCCC5)n4Cc4ccccc43)cc2OC)c1 [Example 159, 10-[(2,3′-Dimethoxy[1,1′-biphenyl]-4-yl)carbonyl]-N-[2-(1-piperidinyl)ethyl]-10,11-dihydro-5H-pyrrolo[2,1-c][1,4]benzodiazepine-3-carboxamide]
23 | 6 | COc1cc(C(=O)N2Cc3ccc(C(=O)N4CCN(C(C)C)CC4)n3Cc3ccccc32)ccc1-c1cccc2ccccc12 [Example 236, (4-Isopropyl-1-piperazinyl){10-[3-methoxy-4-(1-naphthyl)benzoyl]-10,11-dihydro-5H -pyrrolo[2,1-c][1,4]benzodiazepin-3-yl}methanone]
24 | 12 | C=CCN1CCN(C(=O)c2ccc3n2Cc2ccccc2N(C(=O)c2ccc(-c4cccc(OC)c4)c(C)c2)C3)CC1 [Example 223, (4-Allyl-1-piperazinyl){10-[(3′-methoxy-2-methyl[1,1′-biphenyl]-4-yl)carbonyl]-10,11-dihydro-5H-pyrrolo[2,1-c][1,4]benzodiazepin-3-yl}methanone]
25 | 45 | Cc1ccccc1-c1ccc(C(=O)N2Cc3ccc(C(=O)N4CCN(CCN5CCOCC5)CC4)n3Cc3ccccc32)cc1C [Example 218, {10-[(2,2′-Dimethyl[1,1′-biphenyl]-4-yl)carbonyl]-10,11-dihydro-5H-pyrrolo[2,1-c][1,4]benzodiazepin-3-yl}{4-[2-(4-morpholinyl)ethyl]-1-piperazinyl}methanone]
26 | 83 | COc1cc(C(=O)N2Cc3ccc(C(=O)N(C)C4CCN(C)C4)n3Cc3ccccc32)ccc1-c1ccccc1C (centres unmarked) [Example 189, 10-[(2-Methoxy-2′-methyl[1,1′-biphenyl]-4-yl)carbonyl]-N-methyl-N-(1-methyl-3-pyrrolidinyl)-10,11-dihydro-5H-pyrrolo[2,1-c][1,4]benzodiazepine-3-carboxamide]
